For test [1], the target named is Histamine H3 receptor (Rattus norvegicus, UniProt Q9QYN8). In words: Binding affinity towards rat cortical H3 receptor.
The target in test [2] is Histamine H3 receptor (Homo sapiens, UniProt Q9Y5N1). Briefly: Binding affinity for human recombinant H3 receptor.
The target in test [3] is Histamine H2 receptor (Homo sapiens, UniProt P25021). Briefly: Binding affinity towards human histamine (H2) receptor.
In test [4] the target is Histamine H1 receptor (Homo sapiens, UniProt P35367). Briefly: Binding affinity towards human histamine (H1) receptor.

The values below come from ChEMBL document CHEMBL1136688, “Synthesis and SAR of aminoalkoxy-biaryl-4-carboxamides: novel and selective histamine H3 receptor antagonists” (Bioorg Med Chem Lett, 2003).

As a reminder, the Ki is the equilibrium dissociation constant of an inhibitor or competing ligand from its target.

Sequence of Histamine H3 receptor (Homo sapiens, UniProt Q9Y5N1) (Q9Y5N1 whole entry): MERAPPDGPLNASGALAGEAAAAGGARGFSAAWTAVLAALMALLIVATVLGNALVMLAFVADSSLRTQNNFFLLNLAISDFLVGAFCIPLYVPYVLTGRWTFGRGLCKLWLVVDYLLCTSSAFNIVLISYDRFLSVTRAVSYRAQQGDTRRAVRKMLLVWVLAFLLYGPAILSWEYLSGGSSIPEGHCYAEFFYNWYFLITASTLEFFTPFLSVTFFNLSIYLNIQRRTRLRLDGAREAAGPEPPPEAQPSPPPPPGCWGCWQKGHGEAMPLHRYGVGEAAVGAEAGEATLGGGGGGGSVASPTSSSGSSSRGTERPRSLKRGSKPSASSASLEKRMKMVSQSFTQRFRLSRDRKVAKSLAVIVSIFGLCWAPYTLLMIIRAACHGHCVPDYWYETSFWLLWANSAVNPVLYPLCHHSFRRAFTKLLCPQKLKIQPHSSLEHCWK
Sequence of Histamine H3 receptor (Rattus norvegicus, UniProt Q9QYN8) (Q9QYN8 whole entry): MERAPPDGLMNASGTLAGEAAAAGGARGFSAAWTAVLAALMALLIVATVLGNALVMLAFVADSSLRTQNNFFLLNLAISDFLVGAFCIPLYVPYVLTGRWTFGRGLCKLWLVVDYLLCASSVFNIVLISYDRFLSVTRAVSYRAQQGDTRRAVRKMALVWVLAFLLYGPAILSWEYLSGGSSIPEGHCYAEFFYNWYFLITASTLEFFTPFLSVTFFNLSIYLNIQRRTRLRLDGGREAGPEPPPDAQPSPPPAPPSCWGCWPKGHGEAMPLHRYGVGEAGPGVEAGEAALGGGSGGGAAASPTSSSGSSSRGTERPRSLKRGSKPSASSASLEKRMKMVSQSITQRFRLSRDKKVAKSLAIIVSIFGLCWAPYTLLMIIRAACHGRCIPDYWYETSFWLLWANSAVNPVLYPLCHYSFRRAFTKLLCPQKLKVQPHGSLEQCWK
Sequence of Histamine H2 receptor (P25021 whole entry): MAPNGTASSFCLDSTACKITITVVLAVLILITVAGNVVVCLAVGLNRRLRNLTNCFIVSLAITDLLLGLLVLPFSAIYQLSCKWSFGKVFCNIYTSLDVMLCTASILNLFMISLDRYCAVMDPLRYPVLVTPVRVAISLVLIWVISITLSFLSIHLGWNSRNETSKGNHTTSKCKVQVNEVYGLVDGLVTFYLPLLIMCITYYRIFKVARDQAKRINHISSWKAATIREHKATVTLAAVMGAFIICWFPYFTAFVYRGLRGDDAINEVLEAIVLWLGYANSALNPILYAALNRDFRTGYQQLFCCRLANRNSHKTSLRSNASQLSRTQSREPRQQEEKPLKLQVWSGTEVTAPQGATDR
Sequence of Histamine H1 receptor (P35367 whole entry): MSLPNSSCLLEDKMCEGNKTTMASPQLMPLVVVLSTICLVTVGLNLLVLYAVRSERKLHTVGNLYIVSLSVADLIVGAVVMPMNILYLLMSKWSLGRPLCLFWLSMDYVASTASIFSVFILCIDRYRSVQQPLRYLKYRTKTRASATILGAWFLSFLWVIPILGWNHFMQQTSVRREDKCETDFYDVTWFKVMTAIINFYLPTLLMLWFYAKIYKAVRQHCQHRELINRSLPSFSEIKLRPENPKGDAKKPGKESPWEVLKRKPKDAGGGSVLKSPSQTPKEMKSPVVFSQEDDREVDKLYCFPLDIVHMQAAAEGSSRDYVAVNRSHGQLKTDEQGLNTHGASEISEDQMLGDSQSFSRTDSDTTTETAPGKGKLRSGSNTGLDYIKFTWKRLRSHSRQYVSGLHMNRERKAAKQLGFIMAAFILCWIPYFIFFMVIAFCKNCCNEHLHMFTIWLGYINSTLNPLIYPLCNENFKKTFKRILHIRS

For `CC1CCN(CCCOc2ccc(-c3ccc(C(=O)NC(C)C)cc3)cc2)CC1`, the Ki is 3.8 nM in test [1] and 2.09 nM in test [2].
As to `C[C@H]1CC[C@H](C)N1CCCOc1ccc(-c2ccc(C(=O)N3[C@@H](C)CC[C@@H]3C)cc2)cc1`, the Ki in test [2] is 0.977 nM.
With `C[C@H]1CC[C@H](C)N1C(=O)c1ccc(-c2ccc(OCCCN3CCOCC3)cc2)cc1`, the Ki was 115 nM in test [1] and 37.2 nM in test [2].
In the case of `C[C@H]1CC[C@H](C)N1C(=O)c1ccc(-c2ccc(OCCCN3CC[C@H](O)C3)cc2)cc1`, the Ki in test [1] was 57.5 nM; in test [2], 11.2 nM.
On to `O=C(c1ccc(-c2ccc(OCCCN3CCCC3)cc2)cc1)N1CCCC1`, for which the Ki in test [3] is greater than 1910 nM; in test [1], 6.61 nM; in test [4] it was greater than 1910 nM; in test [2] it was 1.12 nM.
As to `CC1CCN(C(=O)c2ccc(-c3ccc(OCCCN4[C@@H](C)CC[C@@H]4C)cc3)cc2)CC1`, the Ki was 2.95 nM in test [1] and 0.603 nM in test [2].
Take `CC1CCN(C(=O)c2ccc(-c3ccc(OCCCN4CC[C@H](O)C4)cc3)cc2)CC1`: the Ki in test [1] is 30.9 nM; in test [2], 6.92 nM.
As to `CCN(CC)CCCOc1ccc(-c2ccc(C(=O)N3CCCC3)cc2)cc1`, the Ki in test [1] was 12.9 nM; in test [2], 3.02 nM.
For the molecule `CC1CCN(CCCOc2ccc(-c3ccc(C(=O)N4CCCC4C)cc3)cc2)CC1` (configuration not stated), the results for the Ki in test [1] and in test [2] were 2.82 nM and 3.72 nM, respectively.
Regarding `CC1CCCN1C(=O)c1ccc(-c2ccc(OCCCN3CCOCC3)cc2)cc1` (configuration not stated), the Ki in test [1] is 112 nM; in test [2] it was 24.5 nM.
As to `CCN(CC)CCCOc1ccc(-c2ccc(C(=O)N3CCOCC3)cc2)cc1`, the results for the Ki in test [1] and in test [2] were 8.91 nM and 2.4 nM, respectively.
With `CC1CCN(C(=O)c2ccc(-c3ccc(OCCCN4CC[C@@H](N(C)C)C4)cc3)cc2)CC1`, the Ki in test [1] is 29.5 nM; in test [2], 3.89 nM.
The like results for `CC1CCCN1C(=O)c1ccc(-c2ccc(OCCCN3CC[C@H](N(C)C)C3)cc2)cc1` (some centres not stated) were, in that order, 21.4 nM and 6.46 nM.
Taken in the same sequence, the figures for `CCN(CC)C(=O)c1ccc(-c2ccc(OCCCN3CCC(C)CC3)cc2)cc1` were 9.12 nM and 4.79 nM.
As for `CCN(CC)C(=O)c1ccc(-c2ccc(OCCCN3CCOCC3)cc2)cc1`, the Ki in test [1] was 97.7 nM; in test [2], 16.2 nM.
For `CCN(CC)CCCOc1ccc(-c2ccc(C(=O)NC(C)C)cc2)cc1`, the Ki in test [1] is 16.2 nM; in test [2], 6.17 nM.
Taken in the same sequence, the figures for `CN(C)[C@@H]1CCN(CCCOc2ccc(-c3ccc(C(=O)N4CCOCC4)cc3)cc2)C1` were 27.5 nM and 5.5 nM.
In the case of `C[C@H]1CC[C@H](C)N1C(=O)c1ccc(-c2ccc(OCCCN3CC[C@H](N(C)C)C3)cc2)cc1`, the results for the inhibition constant (Ki) in test [1] and in test [2] were 17.4 nM and 4.37 nM, respectively.
Regarding `O=C(c1ccc(-c2ccc(OCCCN3CCOCC3)cc2)cc1)N1CCOCC1`, the Ki in test [1] was 52.5 nM; in test [2], 18.2 nM.
As to `CCN(CC)CCCOc1ccc(-c2ccc(C(=O)N3CCC(C)CC3)cc2)cc1`, the values for the Ki in test [1] and in test [2] were 8.32 nM and 3.47 nM, respectively.
On to `CC(C)NC(=O)c1ccc(-c2ccc(OCCCN3[C@@H](C)CC[C@@H]3C)cc2)cc1`, for which the Ki in test [1] is 2.82 nM; in test [2] it was 0.851 nM.
Consider `CC(C)NCCCOc1ccc(-c2ccc(C(=O)N3CCCC3C)cc2)cc1` (configuration not stated), for which the figures for the Ki in test [1] and in test [2] were 42.7 nM and 9.77 nM, respectively.
As for `CCN(CC)C(=O)c1ccc(-c2ccc(OCCCN3[C@@H](C)CC[C@@H]3C)cc2)cc1`, the Ki in test [2] was 0.776 nM.
Take `CC1CCN(CCCOc2ccc(-c3ccc(C(=O)N4CCC(C)CC4)cc3)cc2)CC1`: the Ki in test [1] was 20.9 nM; in test [2], 10.7 nM.
Take `O=C(c1ccc(-c2ccc(OCCCN3CC[C@H](O)C3)cc2)cc1)N1CCOCC1`: the Ki is 32.4 nM in test [1] and 6.17 nM in test [2].
For `CC1CCCN1C(=O)c1ccc(-c2ccc(OCCCN3[C@@H](C)CC[C@@H]3C)cc2)cc1` (some centres not stated), the Ki in test [1] was 1.02 nM; in test [2], 0.776 nM.
For the molecule `CC1CCN(CCCOc2ccc(-c3ccc(C(=O)N4CCCC4)cc3)cc2)CC1`, the Ki in test [1] was 10.2 nM; in test [2], 3.63 nM.
Taken in the same sequence, the figures for `CC1CCN(C(=O)c2ccc(-c3ccc(OCCCN4CCOCC4)cc3)cc2)CC1` were 70.8 nM and 23.4 nM.
On to `CC(C)N(C)C(=O)c1ccc(-c2ccc(OCCCN3CC[C@H](O)C3)cc2)cc1`, for which the figures for the Ki in test [1] and in test [2] were 28.8 nM and 8.13 nM, respectively.
Taken in the same sequence, the figures for `CCN(CC)CCCOc1ccc(-c2ccc(C(=O)N3CCCC3C)cc2)cc1` (configuration not stated) were 7.24 nM and 2.14 nM.
Take `CCN(CC)C(=O)c1ccc(-c2ccc(OCCCNC(C)C)cc2)cc1`: the Ki in test [1] is 407 nM; in test [2], 110 nM.
As for `CCN(CC)CCCOc1ccc(-c2ccc(C(=O)N3[C@@H](C)CC[C@@H]3C)cc2)cc1`, the Ki in test [1] was 13.8 nM; in test [2], 5.13 nM.
In the case of `CN(C)[C@@H]1CCN(CCCOc2ccc(-c3ccc(C(=O)N4CCCC4)cc3)cc2)C1`, the results for the Ki in test [1] and in test [2] were 18.6 nM and 2.88 nM, respectively.
For the molecule `O=C(c1ccc(-c2ccc(OCCCN3CC[C@H](O)C3)cc2)cc1)N1CCCC1`, the Ki in test [1] is 33.1 nM; in test [2], 6.46 nM.
On to `CC1CCN(CCCOc2ccc(-c3ccc(C(=O)N4[C@@H](C)CC[C@@H]4C)cc3)cc2)CC1`, for which the Ki in test [1] is 3.63 nM; in test [2] it was 4.68 nM.
As to `CC(C)NCCCOc1ccc(-c2ccc(C(=O)N3CCOCC3)cc2)cc1`, the Ki in test [1] is 129 nM; in test [2], 32.4 nM.
For the molecule `CC1CCN(CCCOc2ccc(-c3ccc(C(=O)N4CCOCC4)cc3)cc2)CC1`, the Ki in test [1] is 8.71 nM; in test [2], 7.24 nM.
On to `CCN(CC)C(=O)c1ccc(-c2ccc(OCCCN3CC[C@H](N(C)C)C3)cc2)cc1`, for which the results for the Ki in test [1] and in test [2] were 28.2 nM and 6.92 nM, respectively.
For `CC(C)NC(=O)c1ccc(-c2ccc(OCCCN3CCOCC3)cc2)cc1`, the Ki in test [1] is 135 nM; in test [2], 38.9 nM.
`C[C@H]1CC[C@H](C)N1CCCOc1ccc(-c2ccc(C(=O)N3CCCC3)cc2)cc1`: the Ki is 5.13 nM in test [1] and 0.692 nM in test [2].
On to `CC(C)NCCCOc1ccc(-c2ccc(C(=O)N3[C@@H](C)CC[C@@H]3C)cc2)cc1`, for which the Ki was 219 nM in test [1] and 229 nM in test [2].
With `CCN(CC)C(=O)c1ccc(-c2ccc(OCCCN3CC[C@H](O)C3)cc2)cc1`, the Ki in test [1] was 42.7 nM; in test [2], 8.13 nM.
For `CC1CCN(C(=O)c2ccc(-c3ccc(OCCCNC(C)C)cc3)cc2)CC1`, the Ki in test [1] is 479 nM; in test [2], 182 nM.
As to `CC1CCCN1C(=O)c1ccc(-c2ccc(OCCCN3CC[C@H](O)C3)cc2)cc1` (some centres not stated), the Ki was 25.7 nM in test [1] and 8.32 nM in test [2].
Take `O=C(c1ccc(-c2ccc(OCCCN3CCOCC3)cc2)cc1)N1CCCC1`: the values for the Ki in test [1] and in test [2] were 178 nM and 40.7 nM, respectively.
As to `CC(C)(C)CCC#C[C@@H]1C[C@H]1c1c[nH]cn1` [CIPRALISANT], the Ki was 0.195 nM in test [1] and 2.14 nM in test [2].
